# Assay results as given in patent US12692238B2, “Substituted pyridazinone herbicides” (FMC CORPORATION, priority 2020, dated 2026).
# Assays:
# Assay type in all cases: in vivo
# [1] = test system: redroot pigweed (Amaranthus retroflexus); test: Test A preemergence, redroot pigweed; conditions: 0 to 100 scale, 10 days
# From the text: (§1) Seeds of plant species selected from barnyardgrass (Echinochloa crus-galli), blackgrass (Alopecurus myosuroides), corn (Zea mays), foxtail, giant (giant foxtail, Setaria faberi), foxtail, green (green foxtail, Setaria viridis), goosegrass (Eleusine indica), kochia (Bassia scoparia), oat, wild (wild oat, Avena fatua), palmer amaranth (pigweed, palmer, Amaranthus palmeri), redroot pigweed (Amaranthus retroflexus), ragweed (common ragweed, Ambrosia artemisiifolia), ryegrass, Italian (Italian ryegrass, Lolium multiflorum), and soybean (Glycine max) were planted into a blend of loam soil and sand and treated preemergence with a directed soil spray using test chemicals formulated in a non-phytotoxic solvent mixture which included a surfactant.
# (§2) At the same time, plants selected from these crop and weed species and also wheat (Triticum aestivum), galium (catchweed bedstraw, Galium aparine) and horseweed (Erigeron canadensis) were planted in pots containing the same blend of loam soil and sand and treated with postemergence applications of test chemicals formulated in the same manner. Plants ranged in height from 2 to 10 cm and were in the one- to two-leaf stage for the postemergence treatment. Treated plants and untreated controls were maintained in a greenhouse for 10 days, after which time all treated plants were compared to untreated controls and visually evaluated for injury. Plant response ratings, summarized in Table A, are based on a 0 to 100 scale where 0 is no effect and 100 is complete control. A dash (-) response means no test result.
# [2] = test system: galium (catchweed bedstraw, Galium aparine); test: Test A postemergence, galium; conditions: 10 days
# From the text: as §1, §2
# [3] = test system: barnyardgrass (Echinochloa crus-galli); test: Test A postemergence, barnyardgrass; conditions: 10 days
# From the text: as §1, §2
# [4] = test system: redroot pigweed (Amaranthus retroflexus); test: Test A postemergence, redroot pigweed; conditions: 10 days
# From the text: as §1, §2
# [5] = test system: barnyardgrass (Echinochloa crus-galli); test: Test B flooded paddy test, barnyardgrass; conditions: 250 g ai/ha, Flood; visually evaluated after 10 to 14 days
# Experimental: (§3) Plant species in the flooded paddy test selected from barnyardgrass (Echinochloa crus-galli), ducksalad (Heteranthera limosa), rice (Oryza sativa), and sedge, umbrella (small-flower umbrella sedge, Cyperus difformis) were grown to the 2-leaf stage for testing. At time of treatment, test pots were flooded to 3 cm above the soil surface, treated by application of test compounds directly to the paddy water, and then maintained at that water depth for the duration of the test. Treated plants and controls were maintained in a greenhouse for 10 to 14 days, after which time all species were compared to controls and visually evaluated. Plant response ratings, summarized in Table B, are based on a scale of 0 to 100 where 0 is no effect and 100 is complete control. A dash (-) response means no test result.
# [6] = test system: ducksalad (Heteranthera limosa); test: Test B flooded paddy test, ducksalad; conditions: 250 g ai/ha, Flood; visually evaluated after 10 to 14 days
# Experimental: as §3
# [7] = test system: ryegrass, Italian (Italian ryegrass, Lolium multiflorum); test: Test A preemergence, ryegrass, Italian; conditions: 0 to 100 scale, 10 days
# From the text: as §1, §2
# [8] = test system: foxtail, green (green foxtail, Setaria viridis); test: Test A postemergence, foxtail, green; conditions: 10 days
# From the text: as §1, §2
# corn (Zea mays) = test: Test A postemergence, corn; conditions: 10 days
# From the text: as §1, §2
# [9] = test system: sedge, umbrella (small-flower umbrella sedge, Cyperus difformis); test: Test B flooded paddy test, sedge, umbrella; conditions: 250 g ai/ha, Flood; visually evaluated after 10 to 14 days
# Experimental: as §3
# [10] = test system: ryegrass, Italian (Italian ryegrass, Lolium multiflorum); test: Test A postemergence, ryegrass, Italian; conditions: 10 days
# From the text: as §1, §2
# [11] = test system: blackgrass (Alopecurus myosuroides); test: Test A postemergence, blackgrass; conditions: 10 days
# From the text: as §1, §2
# [12] = test system: foxtail, green (green foxtail, Setaria viridis); test: Test A preemergence, foxtail, green; conditions: 0 to 100 scale, 10 days
# From the text: as §1, §2
# kochia (Bassia scoparia) [13] = test: Test A preemergence, kochia; conditions: 0 to 100 scale, 10 days
# From the text: as §1, §2
# [14] = test system: ragweed (common ragweed, Ambrosia artemisiifolia); test: Test A postemergence, ragweed; conditions: 10 days
# From the text: as §1, §2
# kochia (Bassia scoparia) [15] = test: Test A postemergence, kochia; conditions: 10 days
# From the text: as §1, §2
# rice (Oryza sativa) = test: Test B flooded paddy test, rice; conditions: 250 g ai/ha, Flood; visually evaluated after 10 to 14 days
# Experimental: as §3
# [16] = test system: ragweed (common ragweed, Ambrosia artemisiifolia); test: Test A preemergence, ragweed; conditions: 0 to 100 scale, 10 days
# From the text: as §1, §2
# [17] = test system: barnyardgrass (Echinochloa crus-galli); test: Test A preemergence, barnyardgrass; conditions: 10 days
# From the text: as §1, §2
# [18] = test system: wheat (Triticum aestivum); test: Test A postemergence, wheat; conditions: 10 days
# From the text: as §1, §2
# [19] = test system: foxtail, giant (giant foxtail, Setaria faberi); test: Test A postemergence, foxtail, giant; conditions: 10 days
# From the text: as §1, §2
# [20] = test system: foxtail, giant (giant foxtail, Setaria faberi); test: Test A preemergence, foxtail, giant; conditions: 0 to 100 scale, 10 days
# From the text: as §1, §2
# [21] = 31 g ai/ha, postemergence, 0 to 100 scale (0 no effect, 100 complete control)
# [22] = Postemergence, 125 g ai/ha, 0 to 100 scale
# [23] = Postemergence, 31 g ai/ha, 0 to 100 scale
# [24] = 125 g ai/ha, 0 to 100 scale (0 no effect, 100 complete control)
SMILES,"Plant response rating, Pigweed, Redroot ([1]; 31 g ai/ha)","Plant response rating, Pigweed, Redroot ([1]; 125 g ai/ha)","Plant response rating, Galium [2, 21]","Plant response rating, Galium [2, 22]","Plant response rating, Barnyardgrass [3, 22]","Plant response rating, Pigweed, Redroot [4, 21]","Plant response rating, Pigweed, Redroot [4, 22]","Plant response rating, Barnyardgrass (0 to 100 scale where 0 is no effect and 100 is complete control) [5]","Plant response rating, Ducksalad (0 to 100 scale where 0 is no effect and 100 is complete control) [6]","Plant response rating, Ryegrass, Italian ([7]; 31 g ai/ha)","Plant response rating, Ryegrass, Italian ([7]; 125 g ai/ha)","Plant response rating, Corn (corn (Zea mays); [22])","Plant response rating, Sedge, Umbrella (0 to 100 scale where 0 is no effect and 100 is complete control) [9]","Plant response rating, Ryegrass, Italian [10, 21]","Plant response rating, Ryegrass, Italian [10, 22]","Plant response rating, Blackgrass [11, 22]","Plant response rating, Kochia (kochia (Bassia scoparia) [13]; 31 g ai/ha)","Plant response rating, Kochia (kochia (Bassia scoparia) [13]; 125 g ai/ha)","Plant response rating, Ragweed [14, 21]","Plant response rating, Ragweed [14, 22]",also measured
Cc1ccc2ccc(F)cc2c1-c1c(OCOC(=O)C(C)(C)C)c(Cl)nn(C)c1=O [Compound 4],100,100,70,100,60,70,100,75,95,90,100,0,95,50,90,70,20,100,50,100,"Plant response rating, Barnyardgrass [3, 23]: 20; Plant response rating, Foxtail, Green [8, 21]: 40; Plant response rating, Foxtail, Green [8, 22]: 80; Plant response rating, Corn (corn (Zea mays); [23]): 0; Plant response rating, Blackgrass [11, 23]: 20; Plant response rating, Foxtail, Green ([12]; 31 g ai/ha): 70; Plant response rating, Foxtail, Green ([12]; 125 g ai/ha): 100; Plant response rating, Kochia (kochia (Bassia scoparia) [15]; [21]): 10; Plant response rating, Kochia (kochia (Bassia scoparia) [15]; [22]): 40; Plant response rating, Rice (0 to 100 scale where 0 is no effect and 100 is complete control) (rice (Oryza sativa)): 35; Plant response rating, Ragweed ([16]; 31 g ai/ha): 100; Plant response rating, Ragweed ([16]; 125 g ai/ha): 100; Plant response rating, Barnyardgrass ([17]; 31 g ai/ha, 0 to 100 scale): 10; Plant response rating, Barnyardgrass [17, 24]: 100; Plant response rating, Wheat [18, 21]: 40; Plant response rating, Wheat [18, 22]: 70"
Cc1ccc2ccccc2c1-c1c(OCOC(=O)C(C)C)c(Cl)nn(C)c1=O [Compound 6],90,100,70,90,50,60,100,10,70,20,70,0,75,50,70,40,10,50,70,80,"Plant response rating, Barnyardgrass [3, 23]: 20; Plant response rating, Foxtail, Green [8, 21]: 0; Plant response rating, Foxtail, Green [8, 22]: 60; Plant response rating, Corn (corn (Zea mays); [23]): 0; Plant response rating, Blackgrass [11, 23]: 0; Plant response rating, Foxtail, Green ([12]; 31 g ai/ha): 0; Plant response rating, Foxtail, Green ([12]; 125 g ai/ha): 50; Plant response rating, Kochia (kochia (Bassia scoparia) [15]; [21]): 10; Plant response rating, Kochia (kochia (Bassia scoparia) [15]; [22]): 60; Plant response rating, Rice (0 to 100 scale where 0 is no effect and 100 is complete control) (rice (Oryza sativa)): 0; Plant response rating, Ragweed ([16]; 31 g ai/ha): 10; Plant response rating, Ragweed ([16]; 125 g ai/ha): 80; Plant response rating, Barnyardgrass ([17]; 31 g ai/ha, 0 to 100 scale): 0; Plant response rating, Barnyardgrass [17, 24]: 0; Plant response rating, Wheat [18, 21]: 0; Plant response rating, Wheat [18, 22]: 10"
CC(=O)OCOc1c(C)nn(C)c(=O)c1-c1c2cc(F)ccc2cc2c(C)cc(C)cc12 [Compound 27],100,100,70,100,30,100,100,0,65,10,90,10,65,100,100,0,0,80,90,90,"Plant response rating, Barnyardgrass [3, 21]: 20; Plant response rating, Foxtail, Giant [19, 21]: 0; Plant response rating, Foxtail, Giant [19, 22]: 30; Plant response rating, Corn (corn (Zea mays); [21]): 0; Plant response rating, Blackgrass [11, 21]: 0; Plant response rating, Kochia (kochia (Bassia scoparia) [15]; [21]): 10; Plant response rating, Kochia (kochia (Bassia scoparia) [15]; [22]): 70; Plant response rating, Rice (0 to 100 scale where 0 is no effect and 100 is complete control) (rice (Oryza sativa)): 15; Plant response rating, Ragweed ([16]; 31 g ai/ha): 50; Plant response rating, Ragweed ([16]; 125 g ai/ha): 100; Plant response rating, Barnyardgrass ([17]; 31 g ai/ha, 0 to 100 scale): 0; Plant response rating, Barnyardgrass [17, 24]: 30; Plant response rating, Wheat [18, 21]: 0; Plant response rating, Wheat [18, 22]: 0; Plant response rating, Foxtail, Giant ([20]; 31 g ai/ha): 0; Plant response rating, Foxtail, Giant ([20]; 125 g ai/ha): 70"
CC(=O)OCOc1c(C)nn(C)c(=O)c1-c1c2cc(C)ccc2cc2c(F)cc(C)cc12 [Compound 29],100,100,90,100,90,100,100,55,95,0,60,0,98,40,60,20,20,100,100,100,"Plant response rating, Barnyardgrass [3, 21]: 20; Plant response rating, Foxtail, Giant [19, 21]: 20; Plant response rating, Foxtail, Giant [19, 22]: 20; Plant response rating, Corn (corn (Zea mays); [21]): 0; Plant response rating, Blackgrass [11, 21]: 0; Plant response rating, Kochia (kochia (Bassia scoparia) [15]; [21]): 60; Plant response rating, Kochia (kochia (Bassia scoparia) [15]; [22]): 100; Plant response rating, Rice (0 to 100 scale where 0 is no effect and 100 is complete control) (rice (Oryza sativa)): 0; Plant response rating, Ragweed ([16]; 31 g ai/ha): 90; Plant response rating, Ragweed ([16]; 125 g ai/ha): 90; Plant response rating, Barnyardgrass ([17]; 31 g ai/ha, 0 to 100 scale): 0; Plant response rating, Barnyardgrass [17, 24]: 70; Plant response rating, Wheat [18, 21]: 0; Plant response rating, Wheat [18, 22]: 0; Plant response rating, Foxtail, Giant ([20]; 31 g ai/ha): 0; Plant response rating, Foxtail, Giant ([20]; 125 g ai/ha): 20"
